Measured values published in US7338941B2, “Pharmaceutical compositions for lowering blood glucose and blood cholesterol levels” (Diakron Pharmaceuticals, Inc., priority 2002, dated 2008).
Values joined by “and” are separate entries in the source; they are usually repeats but may differ in a detail not shown here. Equal entries are not always repeated.

Test system: db/db mice
Experiment: Blood-sugar-lowering activity in db/db obese mice (oral, daily for 5 days)
Assay type: in vivo
Conditions: for % change in blood glucose after 5 days of treatment (decrease): reduction vs day 0
Method: Db/db mice are commonly used as an in vivo model for studying type II diabetes in animals. Db/db (C57BLKS/J-m+/+Lepr^db) obese mice are obtained from Jackson Laboratories (Maine) and maintained in a temperature-controlled (25° C.) facility with a strict 12-h light/dark cycle and given free access to food and water. Mice are fed pelleted rodent chow which is low in fat (4% w/w). Fasting mice are orally administered with isovitexin dissolved in aqueous vehicle containing 50% PEG50% (10 mg/kg body weight) in a total volume of 200 μL or vehicle alone daily for 5 days. Food is removed from mice 4 hours before the collection of blood from the tail vein. Blood is obtained from mice by drawing one drop of blood (˜50 μL) from the tail vein for glucose analysis. Blood glucose is analyzed using a digital glucometer. Db/db obese mice (n=3: test; n=4: vehicle) were treated daily with 200 μL of isovitexin dissolved in an aqueous solution of PEG 50% (10 mg/kg body weight) or vehicle alone for 5 days. Blood glucose was estimated on day 0, one day prior to initiation of the treatment and on day 5, four hours after withdrawal of food. Blood was obtained from mice by drawing one drop of blood (˜50 μL) from the tail vein for glucose analysis. Blood glucose was analyzed using a digital glucometer and performed in duplicate. Blood glucose values are described as mg/dL±SD. The blood glucose levels in the vehicle treated group (n=4) were 446±35 on day 0 and 477±48 on day 5. […] The results are summarized in Tables 1 and 2 below, and FIG. 1.

## O=c1cc(-c2ccc(O)cc2)oc2cc(O)c([C@@H]3O[C@H](CO)[C@@H](O)[C@H](O)[C@H]3O)c(O)c12 [Isovitexin, 4H-1-benzopyran-4-one, 6-β-D-glucopyranosyl-5,7-dihydroxy-2-(4-hydroxyphenyl)]
db/db mice n=3, isovitexin group before treatment, ± SD
  blood glucose levels, group mean on day 0: 493 ± 54 mg/dL
db/db mice n=3, oral 10 mg/kg daily for 5 days, ± SD
  blood glucose levels, group mean on day 5: 404 ± 10 mg/dL
db/db mice, 10 mg/kg body weight
  lowering of blood glucose (in words): effective in lowering of blood glucose
db/db mice, isovitexin group baseline day 0, one day prior to treatment, ± SD of duplicate
  blood glucose levels, before treatment (day 0), individual mouse: 473 ± 6.36 mg/dL and 554 ± 7.07 mg/dL and 451 ± 21 mg/dL
db/db mice, oral 10 mg/kg daily for 5 days, 4 h after food withdrawal, ± SD of duplicate, 10 mg/kg
  blood glucose levels, after treatment with isovitexin (day 5), individual mouse: 400 ± .71 mg/dL and 415 ± 21.9 mg/dL and 396 ± 2.12 mg/dL
db/db mice, oral 10 mg/kg daily for 5 days, 10 mg/kg
  % change in blood glucose after 5 days of treatment (decrease): 17.8 ± 7.21 (decrease) %
db/db mice, oral 10 mg/kg daily for 5 days, listed as DP-1032T, 10 mg/kg
  % change in blood glucose after 5 days of treatment (decrease): ~17.8%
